Here are results for 2 compounds from patent publication US9949980B2, “Drugs to prevent HPV infection” (Wisconsin Alumni Research Foundation, priority 2008, dated 2018).

The test system of one series is HPV11 pseudoviruses. Put plainly: HPV11 pseudovirus infection in HaCaT cells. Format: cell-based. The method, then: (§1) FIG. 4. Compounds 13 and 14 can inhibit infection by multiple anogenital HPVs. Shown are results from infection experiments in HaCaT cells monitoring the efficiency of infection by HPV16, HPV11 and HPV31 pseudovirus carrying the firefly luciferase gene in the absence (0 μM, vehicle only) or increasing concentrations (0.1 to 100 μM) of Compound 13 or 14. The Y axis is the relative efficiency of infection (squares) or cell viability (circles) as a function of drug concentration (X axis). All data points represent the average of values from triplicate samples. […] Data for HPV16 is the also plotted in FIG. 2.
Compounds 13 and 14: inhibition of infection by multiple papillomavirus genotypes. The goal of this study is to identify compounds that inhibit all sexually transmitted HPVs. For this reason, we monitored the ability of Compounds 13 and 14 to inhibit infection of two additional papillomavirus pseudoviruses that were generated using the capsid proteins of two other sexually transmitted HPVs, high risk HPV31 and low risk HPV11. […]
At 4 hours prior to exposure of cell to pseudoviruses, compounds were added to plates in 1% DMSO final concentration at the indicated amounts. […] Cell viability was assessed in parallel plates by Luminescent Cell Viability Assay (Promega Cat. #G7571).

Series [1] has as its system HPV16 pseudoviruses. Put plainly: Virus particle subcellular localization, fluorescently labeled HPV16 pseudovirus. Format: cell-based. Conditions: 24 hours post infection. Here is the method: FIG. 6. Localization of HPV16 pseudovirions 24 hours post infection. Shown are representative confocal images of cells exposed to cyberXX-labeled HPV16 pseudovirus in the absence (FIG. 6B) or presence of Compound 13 (FIG. 6C) and Compound 14 (FIG. 6D). FIG. 6A is a mock infection negative control. Nuclei are stained.
Mechanism of action of Compounds 13 and 14. To begin to assess the mechanism by which Compounds 13 and 14 inhibit HPV infection, we performed fluorescent microscopy studies on cells treated or not treated with Compounds 13 and 14 that were exposed to HPV16 pseudoviruses in which the encapsidated DNA was labeled with a fluorescent intercalating agent. […] At 24 hours post infection we observed a typical perinuclear staining for the fluorescently labeled HPV16 pseudoviruses in both the untreated and drug treated cells.
Virus particle sub cellular localization studies: A target DNA was labeled with Syto-14 (Invitrogen, 25 NM) in 293FT cells before virus was being packaged. HaCaT cells were infected with the labeled HPV pseudovirus for 24 hours, harvested, and fixed with 1% formaldehyde for 30 minutes, followed by permeabilization with 0.2% Triton X-100 for 10 minutes. Cells were blocked with Image-IT FX Signal Enhancer (Invitrogen) for 30 minutes and incubated with rabbit anti-lamin B1 (ab16048, Abcam) antibodies. […] Virus localization was determined by fluorescence.

In series [2] the test system is HPV16 pseudoviruses. Kind of series: microbe, parasite or virus in culture. In kind it is cell-based. Conditions: Human papillomavirus 16, HEK-293T, 48 h. In short, it runs like this:
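Viability was read by CellTiter Glo luminescence on the same wells used for the SEAP infection read-out, after 48 hrs further incubation.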

The subject of series [3] is HPV16 pseudovirus. Kind of series: microbe, parasite or virus in culture. The following applies: Human papillomavirus 16, HaCaT, read-out: IC50, HPV16 pseudovirus infection. Format: cell-based. The source says: (§2) FIG. 2. Dose dependence inhibition of HPV16 pseudovirus infection in a human keratinocyte cell line (HaCaT). Graphed are the dose-dependent effects of lead compounds shown in Table 2 on the efficiency of infection by HPV16 pseudovirus scored by measuring luciferase reporter activity (squares) as well as their effects on cell viability (circles).
(§3) All but one of these compounds (6 is […]) were repurchased and subjected to a tertiary screen performed in the human keratinocyte cell line, HaCaT, and using HPV16 pseudoviruses encoding a third reporter gene, firefly luciferase, transcribed from a different, E1a, promoter.
The infectivity assay was repeated at least twice and each assay was performed in replicate (n≥3).
(§4) At 4 hours prior to exposure of cell to pseudoviruses, compounds were added to plates in 1% DMSO final concentration at the indicated amounts. Four hours later, 10 multiplicity of infection (M.O.I.) units of HPV16 pseudovirus carrying the plasmid LucF was added to the cells. 72 hours later, cells were lysed and luciferase assays performed using the Luciferase Assay System (Promega Cat. #E1501). For infection studies with HPV11 and HPV31 pseudoviruses, 200 virus genome equivalents (vge) of virus per cell were used. Cell viability was assessed in parallel plates by Luminescent Cell Viability Assay (Promega Cat. #G7571).

In another series the test system is HaCaT cells. In kind it is cell-based, human. The following applies: for CD50 (cytotoxicity): human, 76 h.
From the text: as §2, §3, §4

The test system of series [4] is HPV16 pseudovirus. Put plainly: Luciferase assay: HPV16 pseudovirus with renilla luciferase reporter (HPV16wpA-RL). The following applies: renilla luciferase reporter behind HPV16 promoter.
Method: The protocol for the secondary screen was identical to that of the primary screen with the exception that all volumes were scaled up by a factor of four. RL activity was measured using the Renilla Luciferase Assay System (Promega).
The subject of series [5] is HPV16, HPV11, and HPV31 pseudovirus. Put plainly: Infection by HPV16, HPV11 and HPV31 pseudovirus in HaCaT cells (all genotypes together). Format: cell-based, HPV. Conditions: for IC50 in words for all three HPV pseudovirus infections: HPV16, HPV11, HPV31, 0.1 to 100 μM; for Concentration that completely inhibited all the tested genotypes: HPV16, HPV11, HPV31 pseudovirus. The method, then: as §1
Infection experiments in human keratinocyte cell line, HaCaT, monitoring the efficiency of infection by HPV16, HPV11, and HPV31 pseudovirus carrying the firefly luciferase gene were conducted in the absence or increasing concentrations (0.1 to 100 μM) of Compounds 13 and 14 (see FIG. 4).
In vitro data were collected at 3 μM concentration. […] A human treatment dosage is preferably between 0.1 μM and 100 mM, more preferably between 1 and 10 mM.
as §4

The nature of the next series: in vitro. Conditions: human, Viability (CelTiter Glow).
Where [6] appears, read: read-out: Infectivity (SEAP Activity), 3 μM HTS standard concentration, 293T cells, 48 hrs.
Setting [7] is: read-out: Infectivity vs. viability, 3 μM HTS standard concentration, ratio infectivity/viability.
The mark [8] stands for this setting: read-out: Primary HTS SEAP vs Viability, Table 2, first pair of columns (c2).
[9] abbreviates: read-out: Primary HTS SEAP vs Viability, Table 2, second pair of columns (c4).

SMILES strings stand for the structures. Like-named read-outs stand apart in the source and are kept apart here.

With `CCCn1c2ccccc2c2nnc(SC(CC)C(=O)Nc3ccc(Cl)cn3)nc21` (centres unmarked) [Compound 13, N-(5-chloro-2-pyridinyl)-2-[(5-propyl-5H-[1,2,4]triazino[5,6-b]indol-3-yl)thio]butanamide], the IC50 in the series with HPV11 pseudoviruses was less than 100 nM; with HPV16 pseudovirus [3] it was 800 nM. In addition, the “Step at which the compound inhibits infection (entry of labeled pseudovirus)” value with HPV16 pseudoviruses [1] is listed as “function post-entry”. In addition, the activity at 3 µM with HPV16 pseudoviruses [2] (setting [6]) stood at 21.8%; with HPV16 pseudoviruses [2] (setting [7]) it was 21.4%; with HPV16 pseudoviruses [2] (setting [8]), 8.25%; with HPV16 pseudoviruses [2] (setting [9]) it was 35.4%. The “Toxicity / cytotoxicity in words” value in the series with HaCaT cells is listed as “little to no cytotoxicity”. For the same compound, in the series with HaCaT cells, the “CD50 (cytotoxicity)” value is 25 µM. In the series with HPV16 pseudovirus [4], the “Luciferase assay RL % Average” value amounted to 150.17%. The “IC50 in words for all three HPV pseudovirus infections” value in series [5] was “Submicromolar”. In series [5], the “Concentration that completely inhibited all the tested genotypes” value turned out to be 10 µM. Further, in “in vitro”, the viability at 52 h, 3 μM came to 102%.

As to `Cc1cc(C(c2ccc(F)cc2)c2cc(C)c(NC(=O)c3ccccc3)c(C)c2)cc(C)c1NC(=O)c1ccccc1` [Compound 14, N,N′[[(4-fluorophenyl)methylene]bis(2,6-dimethyl-4,1-phenylene)]dibenzamide], the IC50 is less than 100 nM with HPV11 pseudoviruses and 200 nM with HPV16 pseudovirus [3]. Besides, the “Step at which the compound inhibits infection (entry of labeled pseudovirus)” value with HPV16 pseudoviruses [1] is “function post-entry”. For the same compound, the activity at 3 µM in the series on HPV16 pseudoviruses [2] (setting [6]) amounted to 51%; with HPV16 pseudoviruses [2] (setting [7]) it was 46.5%; with HPV16 pseudoviruses [2] (setting [8]), 65.4%; in the series on HPV16 pseudoviruses [2] (setting [9]) it was 36.6%. In addition, the “Toxicity / cytotoxicity in words” value with HaCaT cells is listed as “little to no cytotoxicity”. Moreover, the “CD50 (cytotoxicity)” value with HaCaT cells is greater than 100 µM. For the same compound, in the series on HPV16 pseudovirus [4], the “Luciferase assay RL % Average” value is given as 37.54%. Besides, the “IC50 in words for all three HPV pseudovirus infections” value in series [5] is “Submicromolar”. Also, the “Concentration that completely inhibited all the tested genotypes” value in series [5] was found to be 4 µM. Also, in the series “in vitro”, the viability at 52 h, 3 μM was 110%.

One may read the IC50 as the concentration that gives 50% inhibition. What is called viability is a read-out of living cells in per cent, often relative to untreated cells.
